pIC50, pKi: −log10 of the molar value.
Experiments:
[1] = target: T1, mGluR5 receptor (human) (Homo sapiens, UniProt P41594); test: Functional Ca2+ influx assay in the mGluR5 receptor assay (CHO-hmGluR5 cells, DHPG); type: cell-based; conditions: 10 μM DHPG, Ki=IC50/(1+(AGconc/EC50))
T1 construct: host or cells: CHO cells (CHO-hmGluR5), expression induced with doxycycline
Description: II. Method for Determining Ca^2+ Influx in the mGluR5 Receptor Assay
An agonistic and/or antagonistic substance action on the mGluR5 receptor of the rat species may be determined with the following assay. According to this assay, intracellular Ca^2+ release is quantified after activation of the mGluR5 receptor with the assistance of a Ca^2+-sensitive dye (type Fluo-4, Molecular Probes Europe BV, Leiden, Netherlands) in a FlexStation (Molecular Devices, Sunnyvale, USA).
Description of the Functional Ca^2+ Influx Assay
20,000 CHO-hmGluR5 cells/well (Euroscreen, Gosselies, Belgium) are pipetted out into 96 well plates (BD Biosciences, Heidelberg, Germany, Ref. 356640, clear bottom, 96 well, poly-D-lysine) and incubated overnight in HBSS buffer (Gibco No. 14025-050) with the following additives: 10% FCS (GIBCO, 10270-106) and doxycycline (BD Biosciences Clontech 631311 600 ng/ml).
For the purpose of functional investigation, the cells were loaded with 2 μM Fluo-4 and 0.01 vol. % Pluronic F127 (Molecular Probes Europe BV, Leiden, Netherlands) in HBSS buffer (Hank's buffered saline solution, Gibco Invitrogen GmbH, Karlsruhe, Germany) with Probenicid (Sigma P8761, 0.69 mg/ml) for 30 min at 37° C.
The cells are then washed 3 times with washing buffer (HBSS buffer, Gibco No. 14025-050, with Probenicid (Sigma P8761, 0.69 [mg]/ml) and then resuspended with the same buffer to make up to 100 μl. After 15 min the plates are transferred for determination of Ca^2+ measurements in the presence of DHPG ((S)-3,5-dihydroxyphenylglycine, Tocris Biotrend Chemikalien GmbH, Cologne, Germany, final DHPG concentration: 10 μM) and in the presence or absence of test substances into a FLuorometric Imaging Plate Reader (FLIPR, Molecular Devices, Sunnyvale, Calif.).
Ca^2+-dependent fluorescence is measured before and after addition of test substances. Quantification proceeds by measuring the highest fluorescence intensity over time.
After recording a fluorescence baseline for 10 s, 50 μl of test substance solution (various test substance concentrations in HBSS buffer with 1% DMSO and 0.02% Tween 20, Sigma) are added and the fluorescence signal is measured for 6 min. Then, 50 μl of DHPG solution ((S)-3,5-dihydroxyphenylglycine, Tocris Biotrend Chemikalien GmbH, Cologne, Germany, final DHPG concentration: 10 μM) are added and Ca^2+ influx is simultaneously measured for 60 s. The final DMSO concentration amounts to 0.25% and the final Tween 20 content amounts to 0.005%. The data are analysed with Microsoft Excel and GraphPad Prism. The dose-response curves are calculated with non-linear regression and IC50 values are determined. Each data point is determined in triplicate and IC50 values are averaged from a minimum of 2 independent measurements.
Ki values are calculated using the following formula: Ki=IC50/(1+(AGconc/EC50)).
AGconc=10 μM; EC50 corresponds to the DHPG concentration which is necessary for the semimaximal influx of Ca^2+.

[2] = target: T2, mGluR5 receptor (pig) (Sus scrofa, UniProt I3LUI7); test: [3H]-MPEP binding in the mGluR5 receptor binding assay (pig brain homogenate); conditions: 5 nM [3H]-MPEP; for pIC50: pig brain homogenate; for mGluR5 receptor (pig) (10 μM) Inhibition (%): 10 μM test compound, 450 μg protein from pig brain homogenate, 60 min, room temperature
T2 construct: 450 μg of protein from brain homogenate is incubated; from tissue; host or cells: pig brain hemispheres without medulla, cerebellum and pons
T2 sequence (I3LUI7 19-1212): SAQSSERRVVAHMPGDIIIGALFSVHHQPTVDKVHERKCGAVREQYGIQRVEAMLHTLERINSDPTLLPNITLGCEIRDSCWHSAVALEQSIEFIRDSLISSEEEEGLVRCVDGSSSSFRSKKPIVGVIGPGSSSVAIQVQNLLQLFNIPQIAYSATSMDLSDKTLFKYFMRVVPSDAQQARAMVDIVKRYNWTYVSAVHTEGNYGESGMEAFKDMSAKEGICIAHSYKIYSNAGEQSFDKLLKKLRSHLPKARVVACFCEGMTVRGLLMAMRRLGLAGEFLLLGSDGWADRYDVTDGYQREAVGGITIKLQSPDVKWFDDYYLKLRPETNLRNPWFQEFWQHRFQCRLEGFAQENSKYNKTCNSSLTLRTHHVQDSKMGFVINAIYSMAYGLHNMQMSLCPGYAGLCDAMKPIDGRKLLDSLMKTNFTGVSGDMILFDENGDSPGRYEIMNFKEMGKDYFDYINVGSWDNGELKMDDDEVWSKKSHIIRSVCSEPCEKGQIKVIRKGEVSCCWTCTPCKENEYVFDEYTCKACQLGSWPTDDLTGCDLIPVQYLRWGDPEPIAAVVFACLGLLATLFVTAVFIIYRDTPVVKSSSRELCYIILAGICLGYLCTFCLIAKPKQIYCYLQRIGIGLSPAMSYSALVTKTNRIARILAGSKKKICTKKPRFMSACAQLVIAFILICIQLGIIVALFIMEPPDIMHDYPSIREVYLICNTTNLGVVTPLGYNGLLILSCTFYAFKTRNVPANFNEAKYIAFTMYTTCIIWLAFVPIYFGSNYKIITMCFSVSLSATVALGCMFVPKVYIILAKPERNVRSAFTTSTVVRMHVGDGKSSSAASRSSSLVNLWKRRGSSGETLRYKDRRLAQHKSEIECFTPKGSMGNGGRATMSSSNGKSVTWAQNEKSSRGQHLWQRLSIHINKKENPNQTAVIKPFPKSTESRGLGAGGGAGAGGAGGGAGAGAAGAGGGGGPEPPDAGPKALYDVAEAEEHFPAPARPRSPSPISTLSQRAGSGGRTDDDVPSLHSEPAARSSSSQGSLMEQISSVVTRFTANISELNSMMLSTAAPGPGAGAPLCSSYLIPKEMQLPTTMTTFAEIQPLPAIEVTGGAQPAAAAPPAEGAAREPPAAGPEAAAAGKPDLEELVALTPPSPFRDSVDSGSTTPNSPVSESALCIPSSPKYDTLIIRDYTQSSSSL
Experimental: I. Method for Determining the Inhibition of [^3H]-MPEP Binding in the mGluR5 Receptor Binding Assay
Pig brain homogenate is produced by homogenisation (Polytron Pt 3000, Kinematica AG, 10,000 revolutions per minute for 90 seconds) of pig brain hemispheres without medulla, cerebellum and pons in a buffer of pH 8.0 (30 mM Hepes, Sigma, order number H3375+1 tablet Complete Roche Diagnostics, order number 1836145 made up to 100 ml) in a ratio of 1:20 (brain weight/volume) and differential centrifugation at 900×g and 40,000×g. 450 μg of protein from brain homogenate is incubated in each case in 250 μl incubation batches in 96-well microtitre plates with 5 nM ^3[H]-MPEP (Tocris, order number R1212) (MPEP=[…]) and the compounds to be investigated ([…]) in the buffer (as above) at room temperature for 60 min.
The batches are then filtered with the assistance of a Brandel Cell Harvester (Brandel, Robotic 9600 model) on Unifilter plates with glass filter mats (Perkin Elmer, order number 6005177) and then washed 3 times with buffer (as above) using 250 μl per sample. The filter plates are then dried for 60 min at 55° C. Then 30 μl of Ultima Gold™ scintillating material (Packard BioScience, order number 6013159) is added per well and after 3 hours the samples are measured using the β counter (Microbeta, Perkin Elmer). Nonspecific binding is determined by the addition of 10 μM MPEP (Tocris, order number 1212).

[3] = system: pain response in rats; test: Formaldehyde test in rats (phase 2, chronic pain component); type: in vivo
Experimental: III. Formaldehyde Test in Rats:
The formaldehyde test (Dubuisson, D. and Dennis, S. G., 1977, Pain, 4, 161-174) is a model of acute and chronic pain. A biphasic nociceptive response is induced in freely mobile test animals by a single formaldehyde injection into the dorsal side of a hind paw, said response being detected by the observation of three clearly distinguishable behaviour patterns. The response is in two phases: phase 1=immediate response (duration up to 10 min; paw shaking, licking), phase 2=late response (after a resting phase; likewise paw shaking, licking; duration up to 60 min). […] In the investigations presented here, it was the chronic pain component (phase 2) which was evaluated.
Formaldehyde is administered subcutaneously in a volume of 50 μl and a concentration of 5% into the dorsal side of the right hind paw of each animal. […] The specific behavioural changes, such as raising and shaking the paw, changes in weight bearing of the animal and biting and licking responses are observed and recorded over the observation period of 21 to 27 min after the formaldehyde injection. The various behaviours are summarised as a “pain rate” (PR), which is the calculated nociceptive response averaged over 3 min sub-intervals. […]

T1 sequence (P41594 21-1212): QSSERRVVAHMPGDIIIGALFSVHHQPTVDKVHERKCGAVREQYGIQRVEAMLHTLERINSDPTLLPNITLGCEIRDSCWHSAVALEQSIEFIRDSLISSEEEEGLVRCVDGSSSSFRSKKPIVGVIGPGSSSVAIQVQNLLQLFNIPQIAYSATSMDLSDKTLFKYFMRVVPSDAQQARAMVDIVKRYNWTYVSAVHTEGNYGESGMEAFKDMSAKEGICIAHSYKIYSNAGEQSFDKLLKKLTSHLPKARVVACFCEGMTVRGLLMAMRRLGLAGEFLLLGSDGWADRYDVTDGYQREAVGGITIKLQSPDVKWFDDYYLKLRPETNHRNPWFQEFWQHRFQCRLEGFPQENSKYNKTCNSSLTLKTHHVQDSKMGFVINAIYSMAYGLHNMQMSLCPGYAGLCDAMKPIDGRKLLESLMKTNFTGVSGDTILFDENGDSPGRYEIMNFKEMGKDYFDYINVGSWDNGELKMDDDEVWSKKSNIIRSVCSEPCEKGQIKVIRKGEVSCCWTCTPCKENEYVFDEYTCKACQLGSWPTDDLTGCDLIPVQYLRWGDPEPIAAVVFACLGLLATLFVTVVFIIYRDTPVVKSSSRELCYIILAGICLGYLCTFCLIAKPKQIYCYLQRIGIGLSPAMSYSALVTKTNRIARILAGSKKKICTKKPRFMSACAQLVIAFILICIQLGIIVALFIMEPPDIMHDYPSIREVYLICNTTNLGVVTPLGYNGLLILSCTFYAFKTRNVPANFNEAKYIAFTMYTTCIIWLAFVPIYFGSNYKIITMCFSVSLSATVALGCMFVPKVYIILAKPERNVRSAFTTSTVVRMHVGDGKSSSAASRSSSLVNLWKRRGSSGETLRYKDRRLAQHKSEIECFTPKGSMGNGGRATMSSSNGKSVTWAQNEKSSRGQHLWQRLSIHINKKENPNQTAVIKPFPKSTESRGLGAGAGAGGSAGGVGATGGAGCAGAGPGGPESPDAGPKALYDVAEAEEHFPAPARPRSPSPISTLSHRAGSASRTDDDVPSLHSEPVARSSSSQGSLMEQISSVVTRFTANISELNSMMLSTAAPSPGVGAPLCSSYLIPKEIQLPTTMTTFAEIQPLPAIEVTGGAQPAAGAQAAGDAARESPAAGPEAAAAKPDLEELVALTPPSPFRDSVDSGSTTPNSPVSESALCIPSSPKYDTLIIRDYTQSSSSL

pKi [1] | pIC50 [2] | Compound | mGluR5 receptor (pig) (10 μM) Inhibition (%) [2] [%] | other results
8.31 | 7.28 | CC1Cc2ccccc2CN1C(=O)C#Cc1cccc(Cl)c1 (stereo not shown) [Example 19, 2-(3-(3-chlorophenyl)-propiolyl)-3-methyl-1,2,3,4-tetrahydro-isoquinoline] | – | –
9.52 | 7.64 | O=C(C#Cc1cccc(Cl)c1)N1CCc2ccccc2CC1 [Example 12, 3-(3-(3-chlorophenyl)-propiolyl)-1,2,4,5-tetrahydrobenzo[d]azepine] | – | –
9.00 | 7.64 | O=C(C#Cc1cccc(Cl)c1)N1CCc2ccccc2C1 [Example 5, 2-(3-(3-chlorophenyl)-propiolyl)-1,2,3,4-tetrahydro-isoquinoline] | – | –
– | 8.33 | Cc1cccc2c1CCN(C(=O)C#Cc1cccc(Cl)c1)C2 [Example 26, 2-(3-(3-chlorophenyl)-propiolyl)-5-methyl-1,2,3,4-tetrahydro-isoquinoline] | – | –
– | 5.10 | O=C(C#Cc1ccccc1)N1CCc2ccccc21 [Example 3, 1-(3-phenyl-propiolyl)-2,3-dihydro-indole] | – | –
9.05 | 8.82 | COc1cccc2c1CCN(C(=O)C#Cc1cccc(Cl)c1)C2 [Example 30, 2-(3-(3-chlorophenyl)-propiolyl)-5-methoxy-1,2,3,4-tetrahydro-isoquinoline] | – | –
8.92 | 8.27 | CC1c2ccccc2CCN1C(=O)C#Cc1cccc(Cl)c1 (stereo not shown) [Example 18, 2-(3-(3-chlorophenyl)-propiolyl)-1-methyl-1,2,3,4-tetrahydro-isoquinoline] | – | ED50 ([3]; iv, rat, i.v., 30 min before formaldehyde): 1.06 mg/kg; Formaldehyde test (rat) per os Reduction in nociceptive behaviour relative to control at 10 mg/kg [%] ([3]; per os, 10 mg/kg): 41%
– | 8.33 | Cc1ccc2c(c1)CN(C(=O)C#Cc1cccc(Cl)c1)CC2 [Example 25, 2-(3-(3-chlorophenyl)-propiolyl)-7-methyl-1,2,3,4-tetrahydro-isoquinoline] | – | –
– | 8.35 | Cc1cccc2c1CN(C(=O)C#Cc1cccc(Cl)c1)CC2 [Example 24, 2-(3-(3-chlorophenyl)-propiolyl)-8-methyl-1,2,3,4-tetrahydro-isoquinoline] | – | –

More lines, now with the values behind:

Compound | pKi [1] | pIC50 [2] | mGluR5 receptor (pig) (10 μM) Inhibition (%) [2] [%] | other results
O=C(C#Cc1ccccc1)N1CCc2ccccc2C1 [Example 1, 2-(3-phenyl-propiolyl)-1,2,3,4-tetrahydro-isoquinoline] | 7.94 | 6.74 | – | –
CC1Cc2ccccc2N1C(=O)C#Cc1cccc(Cl)c1 (stereo not shown) [Example 66, 1-(3-(3-chlorophenyl)-propiolyl)-2-methyl-indoline] | – | – | 70 | –
Cc1cccc(C#CC(=O)N2CCc3ccccc3C2)c1 [Example 51, 2-(3-(3-tolyl)-propiolyl)-1,2,3,4-tetrahydro-isoquinoline] | – | – | 103 | –
Cc1ccc(C#CC(=O)N2c3ccccc3CC2C)c(C)c1 (stereo not shown) [Example 63, 1-(3-(2,4-dimethylphenyl)-propiolyl)-2-methyl-indoline] | – | – | 34 | –
CC1Cc2ccccc2N1C(=O)C#Cc1ccccc1C(F)(F)F (stereo not shown) [Example 75, 1-(3-(2-trifluoromethylphenyl)-propiolyl)-2-methyl-indoline] | – | – | 45 | –
CC1Cc2ccccc2N1C(=O)C#Cc1cccs1 (stereo not shown) [Example 56, 1-(3-(2-thienyl)-propiolyl)-2-methyl-indoline] | – | – | 48 | –
CC1Cc2ccccc2N1C(=O)C#Cc1ccc(F)cc1 (stereo not shown) [Example 65, 1-(3-(4-fluorophenyl)-propiolyl)-2-methyl-indoline] | – | – | 34 | –
CC1Cc2ccccc2N1C(=O)C#Cc1ccc(F)cc1F (stereo not shown) [Example 33, 1-(3-(2,4-difluorophenyl)-propiolyl)-2-methyl-indoline] | – | – | 27 | –
Cc1ccc(C#CC(=O)N2CCc3ccccc3C2)cc1 [Example 39, 2-(3-(4-tolyl)-propiolyl)-1,2,3,4-tetrahydro-isoquinoline] | – | – | 44 | –
Cc1cccc(C#CC(=O)N2c3ccccc3CC2C)c1C (stereo not shown) [Example 46, 1-(3-(2,3-dimethylphenyl)-propiolyl)-2-methyl-indoline] | – | – | 18 | –
Cc1cccc(C#CC(=O)N2c3ccccc3CC2C)c1 (stereo not shown) [Example 52, 1-(3-(3-tolyl)-propiolyl)-2-methyl-indoline] | – | – | 68 | –

Source: patent US20090075978A1, “SUBSTITUTED PROPIOLIC ACID AMIDES AND THEIR USE FOR PRODUCING DRUGS” (Grunenthal GmbH, priority 2005, published 2009)
